Experiment [1] has as its system Escherichia coli acrAB::Tn903 (CB-219). The experiment is described as follows: Micro RI (resistance) bioassay on E. coli CB-219. Type of experiment: cell-based. The method, then:
The frequency of resistance to MDN-0057 and MDN-0058 was assessed on Escherichia coli acrAB::Tn903 (CB-219) and wild type (WT) Acinetobacter baumannii (ATCC BAA-747). For this purpose, the Minimum Inhibitory Concentration of MDN-0057 versus each strain was determined by broth microdilution as described in Clinical Laboratory Standards Institute publication M07-A9, Vol. 32, No. 2., “Methods for Dilution Antimicrobial Susceptibility Tests for Bacteria that Grow Aerobically; Approved Standard—Ninth Edition,” January 2012. Six-well plates containing Mueller Hinton II agar (5 mL per well) were prepared with MDN-0057 or MDN-0058 at concentrations 4-fold and 8-fold above the MIC. Cultures were grown to late log phase and spread on the agar. Plates were incubated at 37° C. and examined after one and two days of incubation.
Six to eight isolates from each species were obtained by re-streaking growth from the plates on antibiotic-free tryptic soy agar plates, and MICs of MDN-0057 versus the isolates were subsequently determined. MICs of the E. coli isolates were elevated at least 16-64-fold relative to their parent strain, CB-219.

Experiment [2] concerns lipid synthesis in E. coli acrAB::Tn903. Nature of the experiment: Macromolecular labeling assay, lipid synthesis. Type of experiment: cell-based, Escherichia coli. The settings on record: at up to 8-fold the MIC, [3H] glycerol. The method, then:
The macromolecular synthesis assay, in which the inhibition of the intracellular building blocks of macromolecules are measured, provides guidance for understanding the broad MOA of compounds
The inhibitory effect on synthesis of macromolecules in the lipid, cell wall, DNA, RNA and protein synthesis pathways was determined in growing cells of E. coli acrAB::Tn903. Cells were grown at 35° C. overnight on Trypticase Soy agar, and this culture was used to inoculate 15 ml of Mueller Hinton broth II (MHB). The culture was grown to early exponential growth phase (OD600=0.2 to 0.3) while incubating in a shaker at 35° C. and 200 rpm.
Cells in early exponential phase were exposed to MDN-0057, and their incorporation of radioactive precursors in each pathway was determined. Rifampicin, Ciprofloxacin, Tetracycline, Imipenem and Irgasan were included as positive controls for inhibition of RNA, DNA, protein, cell wall and lipid synthesis, respectively. (FIG. 1)
Lipid synthesis: Bacterial cells were grown to early exponential growth phase in MHB and 100 μL was added to 1.5 mL eppendorf tubes (in triplicate) containing various concentrations of MDN-0057 or control antibiotics as described above. Following a 5 min incubation at room temperature, [3H] glycerol was added at 0.5 μCi per reaction. […] Samples were then counted via liquid scintillation counting.

The test system of experiment [3] is E. coli ATCC 25922. Nature of the experiment: Broth microdilution MIC. Type of experiment: cell-based, Escherichia coli. The settings on record: E. coli ATCC 25922, wild type. How it is done:
(§1) Antibacterial activity of compounds MDN-0057, MDN-0058, MDN-0059 and MDN-0060 was evaluated using the broth microdilution methodology. This method is used to determine minimum inhibitory concentrations (MICs) which are defined as the lowest concentration of an antimicrobial compound that will inhibit the visible growth of a microorganism after overnight incubation.
(§2) In the microbroth dilution assay, microorganisms were selected by streaking bacteria culture from a cryovial into Mueller Hinton II (MHII) agar plate(s) and incubate overnight at 37° C. Thereafter, 3 to 5 characteristic fresh colonies were selected and suspended in 25 mL of MHII broth media for 2 hours shaking at 220 rpm. The 2 hour broth cultures were adjusted to an optical density of 0.111 at 660 nm and then diluted to 1:100 in order to obtain assay inoculums.
(§3) The four compounds evaluated were serially diluted in 100% DMSO with a dilution factor of 2 to provide 10 compound concentrations starting at 8 mg/mL.
(§4) For the assays, 90 μL/well of the appropriated diluted inoculum were mixed with 1.6 μL/well of each compound concentration and 8.4 μL/well of MHII broth media, resulting in an additional dilution of these compounds to yield concentrations in the assay wells from 128 μg/mL to 0.25 μg/mL. After that, the assay plates were read in a Tecan Ultraevolution spectrophotometer at 612 nm for T0 (zero time). Then, the plates were statically incubated at 37° C. for 20 hours. After incubation, they were shaken in a DPC Micromix-5 and read again for Tf (final time). Percentage of growth inhibition was calculated using the following normalization:
(§5) % Inhibition=[1-[(TfSample-T0Sample)−(TfBlank-T0blank)/(TfGrowth-T0Growth)−(TfBlank-T0blank)]×100. • Where, • T0 Sample=the absorbance of the strain growth in the presence of sample measured at zero time (before incubation). • Tf Sample=the absorbance of the strain growth in the presence of sample measured at final time (after incubation) • T0 Growth=the absorbance of the strain growth in the absence of sample measured at zero time (before incubation). • Tf Growth=the absorbance of the strain growth in the absence of sample measured at final time (after incubation). • T0 Blank=the absorbance of the broth medium (blank) measured at zero time (before incubation). • Tf Blank=the absorbance of the broth medium (blank) measured at final time (after incubation).

The test system of experiment [4] is E. coli 219. Nature of the experiment: Broth microdilution MIC. In kind it is cell-based, Escherichia coli. The conditions noted are these: E. coli 219, ΔAcrAB::Tn903kan. The method, then:
as §1, §2, §3, §4, §5
(In broth dilution the organism is exposed to a series of concentrations in liquid medium.)

The test system of experiment [5] is S. aureus ATCC 29213. Nature of the experiment: Broth microdilution MIC. Type of experiment: cell-based, Staphylococcus aureus. How it is done: as §1, §2, §3, §4, §5

Structures are written as SMILES. In brackets after ≈: the same amount, converted by molar mass. A value given as a limit tells only on which side of the number the result lay.

One may read the MIC as the smallest concentration in the dilution series that meets the test's criterion for growth inhibition.

Turning to `[C-]#[N+]C(=C)C(Cc1ccc(OC)cc1)([N+]#[C-])C1CC(O)CCC1OC(=O)CO` (stereo not shown) [MDN-0057], the “Growth on agar containing compound (frequency of resistance)” value in experiment [1] (E. coli acrAB::Tn903, 4-fold and 8-fold above the broth MIC, after 48 hours of incubation) is given as “pinpoint colonies that were too numerous to count”. Further, the MIC is 0.25 µg/mL (≈ 0.65 µM) in experiment [1] (E. coli_219, Micro RI, Isolate #1_4X); 0.25 µg/mL (≈ 0.65 µM) in experiment [1] (E. coli_219, Micro RI, Isolate #2_8X); 0.25 µg/mL (≈ 0.65 µM) in experiment [1] (E. coli_219, Micro RI, Isolate #3_4X); 0.25 µg/mL (≈ 0.65 µM) in experiment [1] (E. coli_219, Micro RI, Isolate #4_4X); 0.25 µg/mL (≈ 0.65 µM) in experiment [1] (E. coli_219, Micro RI, Isolate #5_8X); 0.125 to 0.5 µg/mL in experiment [1] (E. coli_219, Parent). The MIC in experiment [3] was 16 to 64 µg/mL; in experiment [4], 0.125 to 0.5 µg/mL; in experiment [5] (S. aureus ATCC 29213, wild type), greater than 128 µg/mL. In experiment [1] (six to eight isolates re-streaked from the plates), the “Elevation of MICs of the E. coli isolates relative to parent strain CB-219” value is recorded as 16-64 fold. The “Inhibition of lipid synthesis” value in experiment [2] is listed as “Little or no inhibition”. Besides, the “MIC against S. aureus (No activity)” value in experiment [5] stood at 128 µg/mL (≈ 333 µM).
